Where “and” joins values, the source holds several entries; their conditions need not be identical. Identical values can stand only once. Like-named read-outs stand apart in the source and are kept apart here.
Legend:
SARS-CoV-2 [1] = assay: Hamster model of SARS-CoV-2 infection, oral NTZ treatment (lung infectious titers, lung viral RNA yields, plasma viral loads); type: in vivo, Syrian hamsters; parameters: Lung Infectious titers / Plasmatic viral RNA yields / Lung Viral RNA yields: unit not given here; conditions: for Lung Infectious titers / Lung Viral RNA yields / Plasmatic viral RNA yields: inoculum 104 TCID50, Figure 3, individual animals
SARS-CoV-2 [2] = conditions: Vero E6 cells at 48 h post-infection; read-out: 50% effective concentration (EC50); cited from earlier work
SARS-CoV-2 [3] = type: cell-based; conditions: bronchial human airway epithelium
SARS-CoV-2 [4] = assay: Lung histopathological changes in infected hamsters (cumulative score, grade of severity); type: in vivo, Syrian hamsters
Method: The anatomo-histological study was implemented as previously described.[24]^,[26] Briefly, lungs were collected after intratracheal instillation of 4% (w/v) formaldehyde solution, and then fixed 72h at room temperature with a 4% (w/v) formaldehyde solution before being embedded in paraffin. Tissue sections of 3.5µm were stained with hematoxylin-eosin (H&E) and blindly analyzed by a certified veterinary pathologist. Microscopic examination was done using a Nikon Eclipse E400 microscope. Different anatomic compartments were examined (1) for bronchial and alveolar walls, a score of 0 to 4 was assigned based on severity of inflammation; (2) regarding alveoli, a score of 0 to 2 was assigned based on presence and severity of hemorrhagic necrosis; (3) regarding vessel changes (leucocytic accumulation in vascular wall or in endothelial compartment), absence or presence was scored 0 or 1 respectively. A cumulative score was then calculated and assigned to a grade of severity (see Supplementary Table 4).
Groups of 4 hamsters, intranasally infected with 10^4 TCID50 of SARS-CoV-2, were orally treated at a dose of 500mg/kg/day BID for 4 days (0, 1, 2 and 3 dpi) (Figure 4a). Untreated hamsters (group of 4 animals) received the suspension vehicle BID. Animals were sacrificed at 5 dpi and a cumulative score from 0 to 10 (taking into account severity of inflammation, alveolar hemorrhagic necrosis and vessel lesions) was calculated and then assigned to a grade of severity (0=normal; 1=mild; 2=moderate; 3=marked and 4=severe; details in Supplementary Data 4).

SARS-CoV-2 [5] = assay: microbe, parasite or virus in culture; type: cell-based; conditions: Severe acute respiratory syndrome coronavirus 2, 48 h; Caco-2 cells, viral RNA, 2 days incubation
SARS-CoV-2 [6] = assay: Hamster model of SARS-CoV-2 infection, intranasal NTZ treatment (lung, plasma, nasal turbinates); type: in vivo, Syrian hamsters; parameters: Lung Infectious titers / Lung Viral RNA yields / Plasmatic viral RNA yields / Nasal Turbinates Infectious titers / Nasal Turbinates Viral RNA yields: unit not given here
[7] = Clinical course of the disease in infected hamsters (normalized weight, clinical signs); type: in vivo, Syrian hamsters
Method: Three-week-old female Syrian hamsters were provided by Janvier Labs (SPF status). Animals were maintained in ISOcage P - Bioexclusion System (Techniplast) with unlimited access to water/food and 14h/10h light/dark cycle. A wooden gnawing block and extra bedding material was provided as cage enrichment. Animals were weighed and monitored daily for the duration of the study to detect the appearance of any clinical signs of illness/suffering. General anesthesia was obtained with isoflurane (Isoflurin®, Axience). Euthanasia, which was also realized under general anesthesia, was performed by cervical dislocation.
Groups of 6 hamsters were intranasally infected with 10^4 TCID50 of virus. a Experimental timeline. b, f, j Viral replication in lung based on infectious titers (measured using a TCID50 assay) expressed in TCID50/g of lung (n=6 animals/group). c, g, k Viral replication in lung based on viral RNA yields (measured using an RT-qPCR assay) expressed in viral genome copies/g of lung (n=6 animals/group). d, h, l Plasma viral loads (measured using an RT-qPCR assay) are expressed in viral genome copies/mL of plasma (the dotted line indicates the detection threshold of the assay) (n=6 animals/group). e, i, m Clinical course of the disease (n=6 animals/group). Normalized weight at day n was calculated as follows: % of initial weight of the animal at day n. Data represent mean ± SD (Details in Supplementary Data 2).

[8] = in vivo, cited from earlier work
[9] = NTZ 500mg/kg/day BID oral for 3 days, 3 dpi
[10] = NTZ 500mg/kg/day BID oral for 4 days, 5 dpi
[11] = NTZ 750mg/kg/day TID oral for 3 days, 3 dpi
[12] = Nitazoxanide per os 500mg/kg/day BID, sacrifice day 3
[13] = Nitazoxanide per os 500mg/kg/day BID, sacrifice day 5
[14] = Nitazoxanide per os 750mg/kg/day BID, sacrifice day 3
[15] = nitazoxanide 500mg/kg/day per os BID, day of sacrifice 5, individual animals
[16] = NTZ emulsion 2.8mg/kg/day TID intranasal, 3 dpi, first experiment
[17] = Nitazoxanide IN 2.8mg/kg/day TID, inoculum 104 TCID50, sacrifice day 3, Figure 5, individual animals
[18] = Nitazoxanide IN 2.8mg/kg/day TID, inoculum 104 TCID50, sacrifice day 3, Figure SF 2, individual animals
[19] = Nitazoxanide per os 500mg/kg/day BID, inoculum 104 TCID50, sacrifice day 3, Figure 3, individual animals
[20] = Nitazoxanide per os 500mg/kg/day BID, inoculum 104 TCID50, sacrifice day 5, Figure 3, individual animals
[21] = Nitazoxanide per os 750mg/kg/day BID, inoculum 104 TCID50, sacrifice day 3, Figure 3, individual animals

## CC(=O)Oc1ccccc1C(=O)Nc1ncc([N+](=O)[O-])s1 [NTZ, Nitazoxanide]
SARS-CoV-2 [1]; [9]
  infectious titers in clarified lung homogenates vs untreated animals: no significant differences
  viral RNA yields in clarified lung homogenates vs untreated animals: no significant differences
  viral RNA yields in plasma vs untreated animals: No significant difference
SARS-CoV-2 [1]; [10]
  infectious titers in clarified lung homogenates vs untreated animals: no significant reduction
  viral RNA yields in clarified lung homogenates vs untreated animals: no significant reduction
  viral RNA yields in plasma vs untreated animals: no significant reduction
SARS-CoV-2 [1]; [11]
  infectious titers in clarified lung homogenates vs untreated animals: no significant differences
  viral RNA yields in clarified lung homogenates vs untreated animals: no significant differences
  viral RNA yields in plasma vs untreated animals: No significant difference
SARS-CoV-2 [1]; [12]
  Lung Infectious titers: 8.038 and 8.250 and 7.442 and 7.772 and 7.773 and 7.077
  Lung Viral RNA yields: 8.641
  Plasmatic viral RNA yields: 5.553 and 4.360 and 4.045 and 4.724 and 5.043 and 5.205
SARS-CoV-2 [1]; [13]
  Lung Viral RNA yields: 7.115 and 6.597 and 6.910
  Plasmatic viral RNA yields: 3.987 and 3.600 and 3.442 and 4.487 and 3.519
SARS-CoV-2 [1]; Nitazoxanide per os 500mg/kg/day BID, sacrifice day 5, § : considered at 60 TCID50/mL (detection threshold)
  Lung Infectious titers: ≤ 2.486 § and 4.354 and 4.491 and 5.007 and 3.086
SARS-CoV-2 [1]; [14]
  Lung Infectious titers: 7.345 and 6.869 and 7.090 and 6.311 and 7.103 and 7.069
  Lung Viral RNA yields: 8.692
  Plasmatic viral RNA yields: 3.193 and 2.818 and 5.191 and 4.129 and 4.008 and 4.113
SARS-CoV-2 [2]
  EC50: 2120 nM
SARS-CoV-2 [3]
  effective NTZ concentrations ex vivo: 5 µM
SARS-CoV-2 [3]; conversion of 5µM
  effective NTZ concentrations ex vivo: 1.54 µg/mL
SARS-CoV-2 [4]; NTZ 500mg/kg/day BID oral for 4 days, sacrificed at 5 dpi
  histopathological cumulative scores in lungs vs untreated: no significant difference
SARS-CoV-2 [4]; [15]
  Histologic scores Bronchitis: 4 and 3
  Histologic scores Endothelitis / Vasculitis: 1
  Histologic scores Hemorrhagic necrosis: 0 and 1
  Histologic scores Interstitial pneumonia: 4 and 3
  Histologic scores Total score: 9 and 10 and 8 and 7
SARS-CoV-2 [4]; nitazoxanide 500mg/kg/day per os BID, day of sacrifice 5, individual animals, grade printed as number
  Histologic scores Grade: 4 and 3
SARS-CoV-2 [5]
  EC90: 1750 nM
SARS-CoV-2 [6]; NTZ 2.8mg/kg/day TID intranasal, repeated independent experiment
  viral replication in clarified lung homogenates, plasma or nasal turbinates vs untreated: no significant differences
SARS-CoV-2 [6]; [16]
  infectious titers in clarified lung homogenates vs untreated: significant increase
  infectious titers in nasal turbinates vs untreated: no significant differences
  viral RNA load in nasal turbinates vs untreated: significant reduction
  viral RNA yields in clarified lung homogenates vs untreated: No significant differences
  viral RNA yields in plasma vs untreated: No significant differences
SARS-CoV-2 [6]; [17]
  Lung Infectious titers: 7.738 and 7.565 and 7.260 and 7.126 and 7.436 and 7.154
  Lung Viral RNA yields: 8.897 and 8.809 and 8.599
  Nasal Turbinates Infectious titers: 2.483 and 2.551 and 3.472 and 4.082 and 3.115 and 4.229
  Nasal Turbinates Viral RNA yields: 4.363 and 4.565 and 5.134 and 5.523 and 5.262 and 5.603
  Plasmatic viral RNA yields: 3.551 and 4.595 and 4.938 and 4.386 and 5.492 and 4.672
SARS-CoV-2 [6]; [18]
  Lung Infectious titers: 6.420 and 6.814 and 6.658 and 6.401 and 6.100 and 6.859
  Lung Viral RNA yields: 7.102 and 7.087
  Nasal Turbinates Infectious titers: 3.220 and 2.494 and 2.987 and 4.228 and 2.922 and 3.399
  Nasal Turbinates Viral RNA yields: 5.240 and 5.486 and 5.403 and 6.486 and 5.764 and 5.350
[7]; NTZ 2.8mg/kg/day TID intranasal, 1 to 3 dpi, first experiment
  mean normalized weight vs untreated animals: significantly lower than that of untreated animals
[7]; NTZ 2.8mg/kg/day TID intranasal, 1 to 3 dpi, repeated experiment
  mean normalized weight vs untreated animals: significantly lower than that of untreated animals
[7]; NTZ 500mg/kg/day BID oral for 3 days, at 3 dpi
  mean normalized weight vs untreated animals: significantly lower than that of untreated animals
[7]; NTZ 500mg/kg/day BID oral for 4 days, followed to 5 dpi
  clinical signs of illness/suffering compared to untreated animals: did not show any clinical signs of illness/suffering
[7]; NTZ 750mg/kg/day TID oral for 3 days, at 2 dpi
  mean normalized weight vs untreated animals: significantly lower than that of untreated animals
[7]; [17]
  Normalized weights Day 0: 100
  Normalized weights Day 1: 90.2 and 91.4 and 94.7 and 92.3 and 86.3 and 91.5
  Normalized weights Day 2: 81.4 and 83.1 and 86.9 and 88.1 and 80.0 and 82.4
  Normalized weights Day 3: 70.4
[7]; [18]
  Normalized weights Day 0: 100
  Normalized weights Day 1: 92.6 and 97.1 and 95.9 and 101.1 and 97.4 and 94.0
  Normalized weights Day 2: 84.7 and 91.2 and 89.0 and 92.2 and 87.0 and 85.8
[7]; [19]
  Normalized weights Day 0: 100
  Normalized weights Day 1: 103.3 and 103.7 and 101.9 and 97.1 and 103.5 and 104.5
  Normalized weights Day 2: 100.2 and 95.2 and 98.6 and 92.0 and 97.9 and 99.6
  Normalized weights Day 3: 97.9 and 94.1 and 93.4 and 93.2
[7]; [20]
  Normalized weights Day 0: 100
  Normalized weights Day 1: 103.8 and 103.9 and 104.9 and 104.4 and 104.6 and 102.8
  Normalized weights Day 2: 96.9 and 95.0 and 102.9 and 95.3 and 100.2
  Normalized weights Day 3: 96.2 and 96.1
  Normalized weights Day 4: 83.8
  Normalized weights Day 5: 98.6 and 90.9 and 91.2 and 79.5 and 92.9
[7]; [21]
  Normalized weights Day 0: 100
  Normalized weights Day 1: 102.2 and 103.1 and 105.8 and 99.4 and 106.0 and 101.2
  Normalized weights Day 2: 95.2 and 96.5 and 95.6 and 90.1 and 90.2
  Normalized weights Day 3: 92.7
[7]; histopathology experiment, NTZ 500mg/kg/day BID oral, at 3 dpi
  mean normalized weight vs untreated animals: significantly lower than that of untreated animals
[7]; infected hamsters, nitazoxanide 500mg/kg/day per os BID, Day 0, individual animals
  Normalized weights Day 0: 100
[7]; infected hamsters, nitazoxanide 500mg/kg/day per os BID, Day 1, individual animals
  Normalized weights Day 1: 100.5 and 102.7 and 103.7 and 103.5
[7]; infected hamsters, nitazoxanide 500mg/kg/day per os BID, Day 2, individual animals
  Normalized weights Day 2: 94.1 and 99.3 and 98.2
[7]; infected hamsters, nitazoxanide 500mg/kg/day per os BID, Day 3, individual animals
  Normalized weights Day 3: 92.9 and 96.2
[7]; infected hamsters, nitazoxanide 500mg/kg/day per os BID, Day 4, individual animals
  Normalized weights Day 4: 86.9
[7]; infected hamsters, nitazoxanide 500mg/kg/day per os BID, Day 5, individual animals
  Normalized weights Day 5: 90.1 and 88.3 and 85.4 and 93.9

## O=C(Nc1ncc([N+](=O)[O-])s1)c1ccccc1O [TIZ, tizoxanide]
[8]; human
  Tmax: approximately 2 hours
[8]
  apparent clearance: 19.34 L/h
  volume of distribution: 38.68 L
